Results reported in publication PMC12259270, “Sensory neuron–expressed FGF13 controls nociceptive signaling in diabetic neuropathy models” (The Journal of Clinical Investigation, 2025).
Where “and” joins values, the source holds several entries; their conditions need not be identical. Identical values can stand only once. Residues, ends and D or L forms follow the SMILES beside them. *: point of attachment. NHPh = c1ccc(N*)cc1

System: C57BL/6 mice
Experiment: Capsaicin-induced mechanical hypersensitivity (von Frey)
Assay type: in vivo, mouse
Parameters: LVF Mean / HVF Mean / MECHANICAL LVF / MECHANICAL HVF: unit not given here
From the text: FGF13 is a neuronal gene ubiquitously transcribed in DRG neuronal subtypes ([43]–[46]). To investigate neuronal subtype enrichment of the FGF13 transcript, we examined a gene panel including FGF13, SCN9A, and several marker genes in mouse single-cell transcriptomic data (Supplemental Figure 10) ([43]–[46]). […] Critically, putative silent nociceptors marked by somatostatin (SST), and the nicotinic cholinergic receptor α-3 subunit (CHRNA3) contribute to development of inflammatory mechanical hyperalgesia ([47]). […] We next determined if PW164 modulation of the FGF13/Nav1.7 complex could suppress nociceptive behaviors in WT mice. We tested whether intraplantar (i.pl.) injection (5 μL) of PW164 altered hind paw withdrawal in response to low or high intensity von Frey filament (LVF or HVF, respectively) mechanical stimulation (Figure 3A). […] Next, we evaluated PW164’s effect on mechanical and thermal hindpaw sensitivity in capsaicin-induced nociceptive hypersensitivity models. […] Next, we performed in vivo target validation in WT mice that received an intrathecal (i.t.) injection in L5 of AAV2-shFGF13 (6 μL, viral titers 1 × 10^12 vector genomes (vg)/mL); a control group received an equal number of AAV2-shCTRL particles (Figure 3C).
Experiments were performed on 6- to 12-week-old male C57BL/6 mice (The Jackson Laboratory, Bar Harbor, ME) housed in the AAALAC-accredited facility at the University of Texas Medical Branch. Mice were group-housed with up to 5 mice per cage on a 12-to-12-hour light–dark cycle and had access to water and food ad libitum. All protocols were approved by the Institutional Animal Care and Use Committee (IACUC) at the University of Texas Medical Branch and in accordance with the National Institutes of Health (NIH) guidelines.
PW164 and ZL192 were dissolved in DMSO and saline in a ratio of 1:10. 0.1% capsaicin (10% ethanol, 10% Tween-20 in saline; Sigma-Aldrich). All the compounds were injected at the center of the hind paw. The control group received a DMSO-saline mixture. […]
Bupivacaine was prepared from a 1:2 dilution with sterile 0.9% saline and locally injected in the center of the paw at 7 mg/ml.
AAV2 viral particles packaged by the University of North Carolina Gene Therapy Core Facility (viral titer ranging […]
Before intrathecal injections in the lumbar region, mice were maintained in an anesthetizing box with 2% isoflurane to induce unconsciousness. Six microliters of viral vector were gently injected into the CSF through a 30-gauge needle with a Hamilton syringe in the lumbar area between vertebrae L4 and L5 by gently gripping the iliac crest of the mouse and inserting the needle with an angle of 45°. The correct procedure was confirmed by the mouse’s tail reflexiv e flick.
Assessment of mechanical sensitivity
Mechanical sensitivity was assessed using von Frey filaments (VFF 0.1g and 1.0 g force) in mice that were either naïve or received intraplantar (i.p.) injection of capsaicin. VFFs were applied at the injection site (capsaicin or […]

[1] = Zl 0192 .06mg/ml 5ul site 2 i.d(after cap 0.5h ), Male GFP mouse site 1, hour 0
[2] = Zl 0192 .06mg/ml 5ul site 2 i.d(after cap 0.5h ), Male GFP mouse site 1, hour 0.5
[3] = Zl 0192 .06mg/ml 5ul site 2 i.d(after cap 0.5h ), Male GFP mouse site 1, hour 1
[4] = Zl 0192 .06mg/ml 5ul site 2 i.d(after cap 0.5h ), Male GFP mouse site 1, hour 1.5
[5] = Zl 0192 .06mg/ml 5ul site 2 i.d(after cap 0.5h ), Male GFP mouse site 1, hour 2
[6] = Zl 0192 .06mg/ml 5ul site 2 i.d(after cap 0.5h ), Male GFP mouse site 1, hour 3
[7] = Zl 0192 .06mg/ml 5ul site 2 i.d(after cap 0.5h ), Male GFP mouse site 2, hour 0
[8] = Zl 0192 .06mg/ml 5ul site 2 i.d(after cap 0.5h ), Male GFP mouse site 2, hour 0.5
[9] = Zl 0192 .06mg/ml 5ul site 2 i.d(after cap 0.5h ), Male GFP mouse site 2, hour 1
[10] = Zl 0192 .06mg/ml 5ul site 2 i.d(after cap 0.5h ), Male GFP mouse site 2, hour 1.5
[11] = Zl 0192 .06mg/ml 5ul site 2 i.d(after cap 0.5h ), Male GFP mouse site 2, hour 2
[12] = Zl 0192 .06mg/ml 5ul site 2 i.d(after cap 0.5h ), Male GFP mouse site 2, hour 3
[13] = Zl 0192 .06mg/ml 5ul site 2 i.d., Male GFP mouse site 1, hour 0
[14] = Zl 0192 .06mg/ml 5ul site 2 i.d., Male GFP mouse site 1, hour 0.5
[15] = Zl 0192 .06mg/ml 5ul site 2 i.d., Male GFP mouse site 1, hour 1
[16] = Zl 0192 .06mg/ml 5ul site 2 i.d., Male GFP mouse site 1, hour 1.5
[17] = Zl 0192 .06mg/ml 5ul site 2 i.d., Male GFP mouse site 1, hour 2
[18] = Zl 0192 .06mg/ml 5ul site 2 i.d., Male GFP mouse site 1, hour 3
[19] = Zl 0192 .06mg/ml 5ul site 2 i.d., Male GFP mouse site 2, hour 0
[20] = Zl 0192 .06mg/ml 5ul site 2 i.d., Male GFP mouse site 2, hour 0.5
[21] = Zl 0192 .06mg/ml 5ul site 2 i.d., Male GFP mouse site 2, hour 1
[22] = Zl 0192 .06mg/ml 5ul site 2 i.d., Male GFP mouse site 2, hour 1.5
[23] = Zl 0192 .06mg/ml 5ul site 2 i.d., Male GFP mouse site 2, hour 2
[24] = Zl 0192 .06mg/ml 5ul site 2 i.d., Male GFP mouse site 2, hour 3
[25] = Zl 0192 .18mg/ml 5ul site 2 i.d(after cap 0.5h ), Male GFP mouse site 1, hour 0
[26] = Zl 0192 .18mg/ml 5ul site 2 i.d(after cap 0.5h ), Male GFP mouse site 1, hour 0.5
[27] = Zl 0192 .18mg/ml 5ul site 2 i.d(after cap 0.5h ), Male GFP mouse site 1, hour 1
[28] = Zl 0192 .18mg/ml 5ul site 2 i.d(after cap 0.5h ), Male GFP mouse site 1, hour 1.5
[29] = Zl 0192 .18mg/ml 5ul site 2 i.d(after cap 0.5h ), Male GFP mouse site 1, hour 2
[30] = Zl 0192 .18mg/ml 5ul site 2 i.d(after cap 0.5h ), Male GFP mouse site 1, hour 3
[31] = Zl 0192 .18mg/ml 5ul site 2 i.d(after cap 0.5h ), Male GFP mouse site 2, hour 0
[32] = Zl 0192 .18mg/ml 5ul site 2 i.d(after cap 0.5h ), Male GFP mouse site 2, hour 0.5
[33] = Zl 0192 .18mg/ml 5ul site 2 i.d(after cap 0.5h ), Male GFP mouse site 2, hour 1
[34] = Zl 0192 .18mg/ml 5ul site 2 i.d(after cap 0.5h ), Male GFP mouse site 2, hour 1.5
[35] = Zl 0192 .18mg/ml 5ul site 2 i.d(after cap 0.5h ), Male GFP mouse site 2, hour 2
[36] = Zl 0192 .18mg/ml 5ul site 2 i.d(after cap 0.5h ), Male GFP mouse site 2, hour 3
[37] = Zl 0192 .18mg/ml 5ul site 2 i.d., Male GFP mouse site 1, hour 0
[38] = Zl 0192 .18mg/ml 5ul site 2 i.d., Male GFP mouse site 1, hour 0.5
[39] = Zl 0192 .18mg/ml 5ul site 2 i.d., Male GFP mouse site 1, hour 1
[40] = Zl 0192 .18mg/ml 5ul site 2 i.d., Male GFP mouse site 1, hour 1.5
[41] = Zl 0192 .18mg/ml 5ul site 2 i.d., Male GFP mouse site 1, hour 2
[42] = Zl 0192 .18mg/ml 5ul site 2 i.d., Male GFP mouse site 1, hour 3
[43] = Zl 0192 .18mg/ml 5ul site 2 i.d., Male GFP mouse site 2, hour 0
[44] = Zl 0192 .18mg/ml 5ul site 2 i.d., Male GFP mouse site 2, hour 0.5
[45] = Zl 0192 .18mg/ml 5ul site 2 i.d., Male GFP mouse site 2, hour 1
[46] = Zl 0192 .18mg/ml 5ul site 2 i.d., Male GFP mouse site 2, hour 1.5
[47] = Zl 0192 .18mg/ml 5ul site 2 i.d., Male GFP mouse site 2, hour 2
[48] = Zl 0192 .18mg/ml 5ul site 2 i.d., Male GFP mouse site 2, hour 3

CC(=O)N[C@@H](Cc1ccccc1)C(=O)N[C@@H](CC(C)C)C(=O)N1CCC[C@H]1C(=O)N[C@@H](CCCCN)C(=O)Nc1ccccc1 [Zl 0192] (Ac-FLPK-NHPh)
MECHANICAL HVF [1]: 50 | MECHANICAL LVF [1]: 0 | MECHANICAL HVF [2]: 100 | MECHANICAL LVF [2]: 70 | MECHANICAL HVF [3]: 100 | MECHANICAL LVF [3]: 70 | MECHANICAL HVF [4]: 100 | MECHANICAL LVF [4]: 80 | MECHANICAL HVF [5]: 100 | MECHANICAL LVF [5]: 80 and 70 | MECHANICAL HVF [6]: 100 | MECHANICAL LVF [6]: 80 and 70 | MECHANICAL HVF [7]: 50 | MECHANICAL LVF [7]: 0 | MECHANICAL HVF [8]: 100 | MECHANICAL LVF [8]: 50 and 60 | MECHANICAL HVF [9]: 100 | MECHANICAL LVF [9]: 60 | MECHANICAL HVF [10]: 100 | MECHANICAL LVF [10]: 60 and 70 | MECHANICAL HVF [11]: 100 | MECHANICAL LVF [11]: 70 and 60 | MECHANICAL HVF [12]: 100 | MECHANICAL LVF [12]: 30 and 40 | MECHANICAL HVF [13]: 50 | MECHANICAL LVF [13]: 0 | MECHANICAL HVF [14]: 100 | MECHANICAL LVF [14]: 40 and 70 | MECHANICAL HVF [15]: 100 | MECHANICAL LVF [15]: 70 and 80 | MECHANICAL HVF [16]: 100 | MECHANICAL LVF [16]: 80 and 70 | MECHANICAL HVF [17]: 80 and 90 | MECHANICAL LVF [17]: 50 | MECHANICAL HVF [18]: 80 | MECHANICAL LVF [18]: 20 and 30 | MECHANICAL HVF [19]: 50 | MECHANICAL LVF [19]: 0 | MECHANICAL HVF [20]: 100 | MECHANICAL LVF [20]: 40 and 60 | MECHANICAL HVF [21]: 100 | MECHANICAL LVF [21]: 70 | MECHANICAL HVF [22]: 90 and 70 | MECHANICAL LVF [22]: 60 and 50 | MECHANICAL HVF [23]: 80 and 70 | MECHANICAL LVF [23]: 30 and 40 | MECHANICAL HVF [24]: 80 and 50 | MECHANICAL LVF [24]: 20 and 10 | MECHANICAL HVF [25]: 60 and 50 | MECHANICAL LVF [25]: 0 | MECHANICAL HVF [26]: 100 | MECHANICAL LVF [26]: 70 and 60 | MECHANICAL HVF [27]: 100 | MECHANICAL LVF [27]: 70 and 60 | MECHANICAL HVF [28]: 100 | MECHANICAL LVF [28]: 80 and 90 | MECHANICAL HVF [29]: 100 | MECHANICAL LVF [29]: 80 and 90 | MECHANICAL HVF [30]: 100 | MECHANICAL LVF [30]: 90 and 80 | MECHANICAL HVF [31]: 50 | MECHANICAL LVF [31]: 0 | MECHANICAL HVF [32]: 100 | MECHANICAL LVF [32]: 60 and 70 | MECHANICAL HVF [33]: 100 | MECHANICAL LVF [33]: 60 | MECHANICAL HVF [34]: 100 | MECHANICAL LVF [34]: 60 and 70 | MECHANICAL HVF [35]: 100 | MECHANICAL LVF [35]: 70 and 60 | MECHANICAL HVF [36]: 100 | MECHANICAL LVF [36]: 70 | MECHANICAL HVF [37]: 50 | MECHANICAL LVF [37]: 0 | MECHANICAL HVF [38]: 100 | MECHANICAL LVF [38]: 40 and 50 | MECHANICAL HVF [39]: 100 | MECHANICAL LVF [39]: 80 | MECHANICAL HVF [40]: 100 | MECHANICAL LVF [40]: 70 | MECHANICAL HVF [41]: 100 | MECHANICAL LVF [41]: 70 and 60 | MECHANICAL HVF [42]: 100 | MECHANICAL LVF [42]: 60 | MECHANICAL HVF [43]: 50 | MECHANICAL LVF [43]: 0 | MECHANICAL HVF [44]: 100 | MECHANICAL LVF [44]: 60 and 50 | MECHANICAL HVF [45]: 100 | MECHANICAL LVF [45]: 70 and 60 | MECHANICAL HVF [46]: 100 | MECHANICAL LVF [46]: 60 | MECHANICAL HVF [47]: 100 | MECHANICAL LVF [47]: 70 | MECHANICAL HVF [48]: 100 | MECHANICAL LVF [48]: 50
